Measurements reported in PubChem BioAssay (NCI).
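A five-concentration, 48-hour dose response in 96-well plates underlies each endpoint, interpolated linearly between surrounding concentrations. GI50 is the concentration that inhibits growth by half. At the TGI there is no net growth.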

Columns and labels:
Experiment in all cases: DTP human tumour cell line panel, 48 h
[1] = system: KM12 colon
[2] = system: A498 renal
[3] = system: DLD-1 colon
[4] = system: SNB-19 CNS
[5] = system: HCT-15 colon
[6] = system: XF 498 CNS
[7] = system: HL-60(TB) leukemia
[8] = system: COLO 205 colon
[9] = system: SNB-75 CNS
[10] = system: MALME-3M melanoma
[11] = system: NCI-H23 lung

SMILES: Cn1c(=O)c2nc(NCCO)cnc2n(C)c1=O
- TGI [1]: > 100 µM
- TGI [2]: > 100 µM
- TGI [3]: > 100 µM
- TGI [4]: > 100 µM
- TGI [5]: > 100 µM
- TGI [6]: > 100 µM
- TGI [7]: 76.9 µM
- TGI [8]: > 100 µM
- TGI [9]: 42.4 µM
- TGI [10]: > 100 µM
- TGI [11]: > 100 µM

SMILES: Cc1c(N=NN(C)C)cc[n+]([O-])c1C
- TGI [1]: > 100 µM
- TGI [2]: > 100 µM
- TGI [3]: > 100 µM
- TGI [4]: > 100 µM
- TGI [5]: > 100 µM
- TGI [6]: > 100 µM
- TGI [7]: > 100 µM
- TGI [8]: > 100 µM
- TGI [9]: > 100 µM
- TGI [10]: > 100 µM
- TGI [11]: > 100 µM

SMILES: CCCCS(=O)CC(CO)NC(=O)/C=C/c1c(C)[nH]c(=O)[nH]c1=O (configuration not stated)
- TGI [1]: 49.7 µM
- TGI [2]: 32.5 µM
- TGI [3]: 72.1 µM
- TGI [4]: 24.8 µM
- TGI [5]: 183 µM
- TGI [6]: 14 µM
- TGI [7]: 21.5 µM
- TGI [8]: 53.4 µM
- TGI [9]: 30 µM
- TGI [10]: 14.6 µM
- TGI [11]: 44.6 µM

SMILES: CC(C)[C@](O)(C(=O)OCC1=CCN2CC[C@@H](O)[C@@H]12)[C@H](C)O
- TGI [1]: > 375 µM
- TGI [2]: > 375 µM
- TGI [3]: > 375 µM
- TGI [4]: > 375 µM
- TGI [5]: > 375 µM
- TGI [6]: > 375 µM
- TGI [7]: > 375 µM
- TGI [8]: > 375 µM
- TGI [9]: > 375 µM
- TGI [10]: > 375 µM
- TGI [11]: > 375 µM

SMILES: O=C(c1ccccc1)c1nn(-c2ccccc2)c2nc3nc(-c4ccccc4)cc(=O)n3nc12
- GI50 [1]: 28.3 µM
- TGI [1]: 82.1 µM
- GI50 [2]: 44.8 µM
- TGI [2]: > 100 µM
- GI50 [4]: 42.7 µM
- TGI [4]: > 100 µM
- GI50 [5]: 36.3 µM
- TGI [5]: > 100 µM
- GI50 [7]: 15.2 µM
- TGI [7]: 42.4 µM
- GI50 [8]: 26.8 µM
- TGI [8]: 64.1 µM
- GI50 [9]: 36.1 µM
- TGI [9]: > 100 µM
- GI50 [10]: 0.0477 µM
- TGI [10]: 34.6 µM
- GI50 [11]: 33.1 µM
- TGI [11]: > 100 µM

SMILES: COC(=O)C1C(O)C(C)C(O)OC1C(C)C(O)C(C)/C=C\C=C(/C)C(=O)Nc1c(C)c(OC(C)=O)c2c(c1O)C(=O)C(C)=C1OCOC(/C(C)=C/C(C)=O)=C12 (configuration not stated)
- TGI [1]: 26.5 µM
- TGI [2]: 30.6 µM
- TGI [3]: 19.4 µM
- TGI [4]: 30.9 µM
- TGI [5]: 29 µM
- TGI [6]: 24.6 µM
- TGI [7]: 15.3 µM
- TGI [8]: 20.6 µM
- TGI [9]: 29.1 µM
- TGI [10]: 24.8 µM
- TGI [11]: 27.8 µM

SMILES: O=C1CSC(C(N=Nc2ccc(Cl)cc2)c2nc3ccccc3[nH]2)=N1 (configuration not stated)
- TGI [1]: > 100 µM
- TGI [2]: > 100 µM
- TGI [3]: > 100 µM
- TGI [4]: > 100 µM
- TGI [5]: > 100 µM
- TGI [6]: 45.9 µM
- TGI [7]: > 100 µM
- TGI [8]: > 100 µM
- TGI [9]: 90.2 µM
- TGI [10]: > 100 µM
- TGI [11]: > 100 µM

SMILES: C[C@]12CCc3sc(-c4cccc(F)c4)nc3C1=CC[C@@H]1[C@@H]2CC[C@]2(C)C(=O)CC[C@@H]12
- GI50 [1]: 3.34 µM
- TGI [1]: 17.6 µM
- GI50 [2]: 3.2 µM
- TGI [2]: 17.9 µM
- GI50 [4]: 4.79 µM
- TGI [4]: > 100 µM
- GI50 [5]: 1.56 µM
- TGI [5]: 4.17 µM
- GI50 [7]: 2 µM
- TGI [7]: 5.35 µM
- GI50 [8]: 2.42 µM
- TGI [8]: 5.46 µM
- GI50 [9]: 3.43 µM
- TGI [9]: > 100 µM
- GI50 [10]: 1.8 µM
- TGI [10]: 4.13 µM
- GI50 [11]: 3.54 µM
- TGI [11]: 33.5 µM
